Tests used:
Cytochrome P450 2D6 = Cytochrome P450 2D6 (Homo sapiens, UniProt P10635); conditions: bti-tn-5b1-4; also: in other assays of this panel Not Active means under 50% inhibition at 10 µM
[1] = DRUGMATRIX: Glutamate, NMDA, Agonism radioligand binding (ligand: [3H] CGP-39653); assay type: cell membranes, Rattus norvegicus, Wistar, Cerebral cortex, Membrane; conditions: Not Active = under 50% inhibition at 10 µM
[2] = biological target: T1, Nitric oxide synthase, inducible (Mus musculus, UniProt P29477); design: species or system Escherichia coli;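 also: inhibition of iNOS enzyme activity measured with L-arginine as substrate; in other assays of this panel Not Active means under 50% inhibition at 10 µM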
T1 sequence (P29477 whole entry): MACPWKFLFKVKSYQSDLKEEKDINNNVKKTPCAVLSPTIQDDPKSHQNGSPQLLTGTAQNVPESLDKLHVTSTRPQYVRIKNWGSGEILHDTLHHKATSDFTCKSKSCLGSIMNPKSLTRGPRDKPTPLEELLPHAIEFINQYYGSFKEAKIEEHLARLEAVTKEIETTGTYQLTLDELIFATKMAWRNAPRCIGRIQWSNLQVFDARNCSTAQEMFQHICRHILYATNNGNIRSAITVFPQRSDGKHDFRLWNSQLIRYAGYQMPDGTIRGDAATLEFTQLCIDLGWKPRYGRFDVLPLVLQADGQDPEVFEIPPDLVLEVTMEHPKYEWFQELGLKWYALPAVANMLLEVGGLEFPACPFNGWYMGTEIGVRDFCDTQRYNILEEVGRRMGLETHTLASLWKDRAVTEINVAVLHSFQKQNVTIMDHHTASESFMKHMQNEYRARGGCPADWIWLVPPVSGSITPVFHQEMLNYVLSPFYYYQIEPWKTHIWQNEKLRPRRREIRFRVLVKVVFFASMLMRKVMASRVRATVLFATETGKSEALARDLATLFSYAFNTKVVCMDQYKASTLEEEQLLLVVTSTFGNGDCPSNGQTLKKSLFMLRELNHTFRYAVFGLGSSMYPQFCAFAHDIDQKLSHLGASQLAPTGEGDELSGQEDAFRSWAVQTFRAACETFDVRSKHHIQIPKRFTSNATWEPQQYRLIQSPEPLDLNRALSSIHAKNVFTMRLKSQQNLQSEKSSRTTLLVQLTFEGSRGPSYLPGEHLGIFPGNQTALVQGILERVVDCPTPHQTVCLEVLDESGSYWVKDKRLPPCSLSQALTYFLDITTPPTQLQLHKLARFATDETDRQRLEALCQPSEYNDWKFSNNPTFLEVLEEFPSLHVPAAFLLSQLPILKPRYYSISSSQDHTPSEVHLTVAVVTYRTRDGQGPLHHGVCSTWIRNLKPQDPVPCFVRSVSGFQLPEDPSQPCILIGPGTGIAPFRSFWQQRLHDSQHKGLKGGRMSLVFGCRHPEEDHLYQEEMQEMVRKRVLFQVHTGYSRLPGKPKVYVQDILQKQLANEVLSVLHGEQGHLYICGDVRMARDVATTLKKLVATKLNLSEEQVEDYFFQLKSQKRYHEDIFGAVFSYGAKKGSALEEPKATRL

Substance-K receptor = biological target: T2, Substance-K receptor (Homo sapiens, UniProt P21452); assay type: cell membranes, CHO, Membrane; conditions: cho; also: in other assays of this panel Not Active means under 50% inhibition at 10 µM
T2 sequence (P21452 whole entry): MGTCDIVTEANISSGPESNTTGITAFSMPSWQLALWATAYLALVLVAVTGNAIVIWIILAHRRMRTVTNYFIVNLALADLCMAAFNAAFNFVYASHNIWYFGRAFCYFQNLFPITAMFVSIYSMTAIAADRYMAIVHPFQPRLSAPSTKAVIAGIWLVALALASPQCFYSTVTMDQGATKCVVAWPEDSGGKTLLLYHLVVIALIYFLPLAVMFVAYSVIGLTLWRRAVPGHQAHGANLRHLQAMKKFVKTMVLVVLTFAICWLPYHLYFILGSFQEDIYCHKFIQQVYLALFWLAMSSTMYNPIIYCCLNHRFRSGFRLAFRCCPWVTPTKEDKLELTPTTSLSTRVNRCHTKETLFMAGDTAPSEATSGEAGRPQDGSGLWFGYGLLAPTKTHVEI

B2 bradykinin receptor = biological target: T3, B2 bradykinin receptor (Homo sapiens, UniProt P30411); assay type: cell membranes, Membrane; conditions: chem-1; also: in other assays of this panel Not Active means under 50% inhibition at 10 µM
T3 sequence (P30411 whole entry): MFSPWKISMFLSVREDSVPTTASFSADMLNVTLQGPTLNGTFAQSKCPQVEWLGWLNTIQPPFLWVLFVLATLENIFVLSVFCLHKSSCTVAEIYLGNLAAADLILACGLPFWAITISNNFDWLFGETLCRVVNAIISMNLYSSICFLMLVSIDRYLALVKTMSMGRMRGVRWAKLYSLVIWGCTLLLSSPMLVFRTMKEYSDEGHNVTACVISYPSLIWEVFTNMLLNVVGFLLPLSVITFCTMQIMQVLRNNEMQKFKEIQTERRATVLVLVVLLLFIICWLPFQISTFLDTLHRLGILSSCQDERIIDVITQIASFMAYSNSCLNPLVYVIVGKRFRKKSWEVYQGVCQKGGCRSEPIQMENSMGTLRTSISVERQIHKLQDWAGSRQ

[3] = DRUGMATRIX: Phorbol Ester radioligand binding (ligand: [3H] PDBu); assay type: cell membranes, Mus musculus, ICR, Brain, Membrane; conditions: Not Active = under 50% inhibition at 10 µM
[4] = biological target: 5-hydroxytryptamine receptor 1B (Rattus norvegicus, UniProt P28564); assay type: cell membranes, Wistar, Cerebral cortex, Membrane; also: in other assays of this panel Not Active means under 50% inhibition at 10 µM
5-hydroxytryptamine receptor 1B, sequence (P28564 whole entry): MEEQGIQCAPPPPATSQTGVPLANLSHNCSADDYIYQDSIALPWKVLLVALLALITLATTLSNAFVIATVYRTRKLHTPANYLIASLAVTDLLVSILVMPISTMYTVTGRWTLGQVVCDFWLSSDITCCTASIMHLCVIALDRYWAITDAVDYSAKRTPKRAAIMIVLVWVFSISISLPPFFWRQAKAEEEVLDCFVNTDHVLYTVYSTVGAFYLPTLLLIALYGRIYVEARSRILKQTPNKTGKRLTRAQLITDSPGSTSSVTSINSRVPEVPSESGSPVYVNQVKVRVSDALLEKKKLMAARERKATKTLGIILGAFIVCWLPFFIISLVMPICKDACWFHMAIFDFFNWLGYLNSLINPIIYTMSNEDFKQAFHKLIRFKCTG

Cytochrome P450 2D6, sequence (P10635 whole entry): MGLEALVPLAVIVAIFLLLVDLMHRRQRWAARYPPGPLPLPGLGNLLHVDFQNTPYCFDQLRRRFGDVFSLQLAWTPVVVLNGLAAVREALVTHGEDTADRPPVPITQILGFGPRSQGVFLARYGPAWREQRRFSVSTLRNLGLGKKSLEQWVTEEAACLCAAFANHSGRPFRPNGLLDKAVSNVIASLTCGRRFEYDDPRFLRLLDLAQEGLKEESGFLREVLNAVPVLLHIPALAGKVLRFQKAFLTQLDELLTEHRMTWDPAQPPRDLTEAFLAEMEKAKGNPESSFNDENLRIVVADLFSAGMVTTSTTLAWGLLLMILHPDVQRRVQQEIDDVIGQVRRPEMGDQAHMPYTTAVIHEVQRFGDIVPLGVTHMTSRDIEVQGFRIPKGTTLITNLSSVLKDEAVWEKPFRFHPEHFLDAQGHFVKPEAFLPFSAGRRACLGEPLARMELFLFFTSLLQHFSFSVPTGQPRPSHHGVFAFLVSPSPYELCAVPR

CCN(C(C)=O)c1cccc(-c2ccnc3c(C#N)cnn23)c1 [ZALEPLON]
Not Active: IC50 (Cytochrome P450 2D6) | Ki (Cytochrome P450 2D6) | IC50 [1] | Ki [1] | IC50 [2] | IC50 (Substance-K receptor) | IC50 (B2 bradykinin receptor) | IC50 [3] | Ki [3] | IC50 [4]

Nc1cc(-c2ccncc2)c[nH]c1=O [INAMRINONE]
Not Active: IC50 (Cytochrome P450 2D6) | Ki (Cytochrome P450 2D6) | IC50 [1] | Ki [1] | IC50 [2] | IC50 (Substance-K receptor) | IC50 (B2 bradykinin receptor) | IC50 [3] | Ki [3] | IC50 [4]

NC(=O)c1cccc(N)c1 [3-AMINOBENZAMIDE]
Not Active: IC50 (Cytochrome P450 2D6) | Ki (Cytochrome P450 2D6) | IC50 [1] | Ki [1] | IC50 [2] | IC50 (Substance-K receptor) | IC50 (B2 bradykinin receptor) | IC50 [3] | Ki [3] | IC50 [4]

NC(=O)c1cccnc1 [NIACINAMIDE]
Not Active: IC50 (Cytochrome P450 2D6) | Ki (Cytochrome P450 2D6) | IC50 [1] | Ki [1] | IC50 [2] | IC50 (Substance-K receptor) | IC50 (B2 bradykinin receptor) | IC50 [3] | Ki [3] | IC50 [4]

CCC1=C(C)CN(C(=O)NCCc2ccc(S(=O)(=O)NC(=O)N[C@H]3CC[C@H](C)CC3)cc2)C1=O [GLIMEPIRIDE]
Not Active: IC50 (Cytochrome P450 2D6) | Ki (Cytochrome P450 2D6) | IC50 [1] | Ki [1] | IC50 [2] | IC50 (Substance-K receptor) | IC50 (B2 bradykinin receptor) | IC50 [3] | Ki [3] | IC50 [4]

CC(C)NCC(O)c1ccccc1Cl (centres undefined) [CLORPRENALINE]
Not Active: IC50 (Cytochrome P450 2D6) | Ki (Cytochrome P450 2D6) | IC50 [1] | Ki [1] | IC50 [2] | IC50 (Substance-K receptor) | IC50 (B2 bradykinin receptor) | IC50 [3] | Ki [3] | IC50 [4]

COc1cccc2c1C(=O)c1c(O)c3c(c(O)c1C2=O)C[C@@](O)(C(C)=O)C[C@@H]3O[C@H]1C[C@H](N)[C@H](O)[C@H](C)O1 [DAUNORUBICIN]
Not Active: IC50 (Cytochrome P450 2D6) | Ki (Cytochrome P450 2D6) | IC50 [1] | Ki [1] | IC50 [2] | IC50 (Substance-K receptor) | IC50 (B2 bradykinin receptor) | IC50 [3] | Ki [3] | IC50 [4]

COc1ccccc1N
Not Active: IC50 (Cytochrome P450 2D6) | Ki (Cytochrome P450 2D6) | IC50 [1] | Ki [1] | IC50 [2] | IC50 (Substance-K receptor) | IC50 (B2 bradykinin receptor) | IC50 [3] | Ki [3] | IC50 [4]

C[S+](C)[O-] [DIMETHYL SULFOXIDE]
Not Active: IC50 (Cytochrome P450 2D6) | Ki (Cytochrome P450 2D6) | IC50 [1] | Ki [1] | IC50 [2] | IC50 (Substance-K receptor) | IC50 (B2 bradykinin receptor) | IC50 [3] | Ki [3] | IC50 [4]

C[C@@H]1O[C@@H](O[C@H]2C[C@@H](O)[C@]3(CO)[C@H]4[C@H](O)C[C@]5(C)[C@@H](C6=CC(=O)OC6)CC[C@]5(O)[C@@H]4CC[C@]3(O)C2)[C@H](O)[C@H](O)[C@H]1O [OUABAIN]
Not Active: IC50 (Cytochrome P450 2D6) | Ki (Cytochrome P450 2D6) | IC50 [1] | Ki [1] | IC50 [2] | IC50 (Substance-K receptor) | IC50 (B2 bradykinin receptor) | IC50 [3] | Ki [3] | IC50 [4]

C#C[C@]1(O)CC[C@H]2[C@@H]3CCC4=CC(=O)CC[C@]4(C)[C@H]3CC[C@@]21C [ETHISTERONE]
Not Active: IC50 (Cytochrome P450 2D6) | Ki (Cytochrome P450 2D6) | IC50 [1] | Ki [1] | IC50 [2] | IC50 (Substance-K receptor) | IC50 (B2 bradykinin receptor) | IC50 [3] | Ki [3] | IC50 [4]

O=C(c1ccccc1F)N1CCC(Cc2ccccc2)CC1
Not Active: IC50 (Cytochrome P450 2D6) | Ki (Cytochrome P450 2D6) | IC50 [1] | Ki [1] | IC50 [2] | IC50 (Substance-K receptor) | IC50 (B2 bradykinin receptor) | IC50 [3] | Ki [3] | IC50 [4]

O=C(O)CCNC(=O)c1ccc(/N=N/c2ccc(O)c(C(=O)O)c2)cc1 [BALSALAZIDE]
Not Active: IC50 (Cytochrome P450 2D6) | Ki (Cytochrome P450 2D6) | IC50 [1] | Ki [1] | IC50 [2] | IC50 (Substance-K receptor) | IC50 (B2 bradykinin receptor) | IC50 [3] | Ki [3] | IC50 [4]

N=C(N)c1ccc(OCCCCCOc2ccc(C(=N)N)cc2)cc1 [PENTAMIDINE]
Not Active: IC50 (Cytochrome P450 2D6) | Ki (Cytochrome P450 2D6) | IC50 [1] | Ki [1] | IC50 [2] | IC50 (Substance-K receptor) | IC50 (B2 bradykinin receptor) | IC50 [3] | Ki [3] | IC50 [4]

CN1C(=O)CN=C(c2ccccc2)c2cc([N+](=O)[O-])ccc21 [NIMETAZEPAM]
Not Active: IC50 (Cytochrome P450 2D6) | Ki (Cytochrome P450 2D6) | IC50 [1] | Ki [1] | IC50 [2] | IC50 (Substance-K receptor) | IC50 (B2 bradykinin receptor) | IC50 [3] | Ki [3] | IC50 [4]

NS(=O)(=O)c1cc(C2(O)NC(=O)c3ccccc32)ccc1Cl (centres undefined) [CHLORTHALIDONE]
Not Active: IC50 (Cytochrome P450 2D6) | Ki (Cytochrome P450 2D6) | IC50 [1] | Ki [1] | IC50 [2] | IC50 (Substance-K receptor) | IC50 (B2 bradykinin receptor) | IC50 [3] | Ki [3] | IC50 [4]

CC(=O)OCC(=O)[C@@]1(O)CC[C@H]2[C@@H]3CCC4=CC(=O)CC[C@]4(C)[C@@]3(F)[C@@H](O)C[C@@]21C [FLUDROCORTISONE ACETATE]
Not Active: IC50 (Cytochrome P450 2D6) | Ki (Cytochrome P450 2D6) | IC50 [1] | Ki [1] | IC50 [2] | IC50 (Substance-K receptor) | IC50 (B2 bradykinin receptor) | IC50 [3] | Ki [3] | IC50 [4]

COLISTIN
Not Active: IC50 (Cytochrome P450 2D6) | Ki (Cytochrome P450 2D6) | IC50 [1] | Ki [1] | IC50 [2] | Ki [2] | IC50 (Substance-K receptor) | Ki (Substance-K receptor) | IC50 (B2 bradykinin receptor) | Ki (B2 bradykinin receptor) | IC50 [3] | Ki [3] | IC50 [4] | Ki [4]

O=c1c(-c2ccc(O)cc2)coc2cc(O)cc(O)c12 [GENISTEIN]
Not Active: IC50 (Cytochrome P450 2D6) | Ki (Cytochrome P450 2D6) | IC50 [1] | Ki [1] | IC50 [2] | IC50 (Substance-K receptor) | IC50 (B2 bradykinin receptor) | IC50 [3] | Ki [3] | IC50 [4]

CN1C[C@@H]2C[C@H]1CN2c1cc2c(cc1F)c(=O)c(C(=O)O)cn2C1CC1 [DANOFLOXACIN]
Not Active: IC50 (Cytochrome P450 2D6) | Ki (Cytochrome P450 2D6) | IC50 [1] | Ki [1] | IC50 [2] | IC50 (Substance-K receptor) | IC50 (B2 bradykinin receptor) | IC50 [3] | Ki [3] | IC50 [4]

Reference: ChEMBL document CHEMBL1909046, “DrugMatrix in vitro pharmacology data”
